Results as given in patent US20240118267A1, “CELL CULTURE GROWTH APPARATUS AND METHOD OF UNDERSIDE ATTACHMENT TO A SURFACE USING CELL SEEDING” (Georgia Tech Research Corporation, priority 2021, published 2024).
Structures can show the parent of a compound that is named as a salt.

Key:
[1] = tested on: primary human neutrophils; test: Neutrophil transmigration to chemoattractant or sample in 96-well co-culture, counted by flow cytometry; assay type: cell-based; conditions: for number of counted transmigrated neutrophils versus chemoattractant dose: 3 healthy donors, 16 hours, two-way ANOVA p<0.0001
[2] = Sodium fluorescein permeability across epithelial-endothelial co-culture; assay type: in vitro ADME; conditions: human
HUVEC = test: Tolerance of HUVEC to puromycin in routine culture; assay type: cell-based, human; conditions: long time periods; unpublished observation
From the text: HUVEC maintenance in T-75 flasks. Primary Human Umbilical Vein Endothelial Cells were employed from ATCC (ATCC® PCS-100-013™) and expanded according to manufacturer instructions in Vascular Cell Basal Medium (ATCC® PCS-100-030™) supplemented with Endothelial Cell Growth Kit-VEGF (ATCC® PCS-100-041™) with added Penicillin-Streptomycin (Gibco™ 15140148) diluted 1:100 v:v. HUVECs were transduced to constitutively express RFP. […] Cells were passaged at 60-80% confluence according to manufacturer instructions, counted with Nexcelcom Cellometer Auto T4 Bright Field Cell Counter (Nexcelcom Bioscience) using Trypan Blue viability stain, and used below the passage 10 since expanding from ATCC.
Lentiviral transduction. H441 cells and HUVECs were transduced with lentivirus to constitutively express GFP and RFP, respectively. H441 cells were seeded in T-75 flasks at 0.75e6 cells/75 cm^2 and allowed to attach overnight. Then H441 cells were inoculated with GFP gene-bearing lentivirus with puromycin resistance (Brand, product #). Lentivirus (8 TU/cell) was suspended in H441 routine culture media with the addition of transfection reagent polybrene ([…]). The cells were inoculated overnight and then allowed to recover in routine cell culture media for 72 hours with media changes every 48 hours. […]

[3] = tested on: endothelium of H441-HUVEC co-culture; test: Endothelial von Willebrand factor release after epithelial exposure; assay type: cell-based, human; conditions: epithelial side exposed for 10 minutes
Procedure: Staining and imaging. All stains used reagents from ThermoFisher's Image-iT™ Fixation/Permeabilization Kit (R37602) for washing, fixing, blocking, and permeabilization. For all stains, inserts were cut out and fixed on glass slides for 10 minutes at 37° C. For stains requiring permeabilization, the inserts were incubated with 0.5% Triton X (ImageIT kit) for 5 minutes at 37° C. All inserts were blocked for 1 hour at 37° C., counterstained with DAPI (1:1000 in PBS for 5 minutes) and mounted between two coverslips with ProLong™ Diamond Antifade Mountant (Invitrogen). F-actin. After fixation, permeabilization, and blocking, inserts were incubated for 1 hour at 37° C. in Alexa Fluor™ 647 Phalloidin (Invitrogen) diluted 1:20 from stock solution in 1% BSA (Image-iT™). ZO-1/e-cadherin co-stain. After fixation, permeabilization, and blocking, the primary antibodies (ZO-1 Rabbit anti-human polyclonal antibody, ThermoFisher 61-7300, 1:200; e-cadherin Mouse anti-human monoclonal antibody, ThermoFisher 13-1700, 1:2000) were suspended together in 1% BSA (Image-It Kit) and co-incubated with the inserts for 2 hours at 37° C. The secondary antibodies (Goat anti-Rabbit IgG, Alexa Fluor 405, Abcam ab 175665, 1:200; Goat anti-mouse IgG, Alexa Fluor 647, ThermoFisher A32728, 1:500) were suspended in 1% BSA and incubated with the filters for 2 hours at 37° C. […]

[4] = tested on: endothelium of H441-HUVEC co-culture; test: IL-8 on the endothelial side of the H441/HUVEC co-culture (ELISA); assay type: cell-based, human; conditions: 24-hour exposure on the epithelial side
Procedure: Then, IL-8 produced on the endothelial side was measured by ELISA (R&D Systems). […] Statistics were performed in GraphPad Prism 9.
Cytokine quantitation. Cell culture supernatants were collected at specified intervals. IL-6 and IL-8 were quantified with ELISA assays according to manufacturer instructions (Human IL-6 DuoSet ELISA, R&D Systems DY206-05; Human IL-8/CXCL8 DuoSet ELISA, R&D Systems, DY208-05; DuoSet ELISA Ancillary Reagent Kit 2, R&D Systems; DY008.

Compound: CCCCC/C=C\C[C@@H](O)/C=C/C=C/C=C\[C@@H](O)CCCC(=O)O [LTB4, leukotriene B4]
- number of counted transmigrated neutrophils versus chemoattractant dose [1]: effect of chemoattractant dose

Compound: O=C1OC2(c3ccc(O)cc3Oc3cc(O)ccc32)c2ccccc21 [NaFL, Fluorescein sodium salt]
- Papp at 2 h, 30 µM ([2]; H441/HUVEC co-culture at ALI, S.D. 1.63e-5 cm/s, 95% CI 1.53e-6-1.25e-5 cm/s): 7.04 ×10⁻⁶ cm/s
- Papp at 3 h, 30 µM ([2]; control, no exposure, at ALI, over a 3-hour period, n=4, read-out: permeability of the control bilayer co-culture): 7.04 ×10⁻⁶ cm/s

Compound: COc1ccc(C[C@H](N)C(=O)N[C@H]2[C@@H](O)[C@H](n3cnc4c(N(C)C)ncnc43)O[C@@H]2CO)cc1 [puromycin]
- tolerance by HUVEC in routine culture medium (HUVEC): did not tolerate it well for long time periods

Compound: IL-8: recombinant human protein IL-8 (HEK-expressed, activity tested), chemoattractant
- number of counted transmigrated neutrophils versus chemoattractant dose [1]: effect of chemoattractant dose
- neutrophil transmigration numbers versus concentration ([1]; 18 hour transmigration time): increase

Compound: polyinosinic:polycytidylic acid [poly(I:C)]
- endothelial von Willebrand factor (VWF) exocytosis [3]: immediately exocytosed von Willebrand factor
- endothelial release of IL-8 [4]: weakly dose-dependent
